Here are results for nine molecules from ChEMBL document CHEMBL1201862, “PubChem BioAssay data set” (2004).

Where “and” joins values, the source holds several entries; their conditions need not be identical. Equal entries are not always repeated. Structures can show the parent of a compound that is named as a salt.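 Grown in 96-well plates, cells were treated for 48 hours with each compound at five concentrations. Insufficient inhibition: endpoint recorded as highest concentration tested. At the GI50, growth is halved.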 Calls of active or inactive are those of the source. Cut-off read from the data, not from the text of the source: active = GI50 up to about 1.1 µM and inactive = higher. Some results are limits rather than exact numbers.

Test systems include CAKI-1; DLD-1; DMS-114; DMS-273; EKVX; HCC 2998; HCT-116; HCT-15; K562; MCF7; NCI/ADR-RES; OVCAR-3; RPMI-8226; SF-268; SN12C; UACC-257; XF498; MDA-MB-231; MDA-MB-435; T47D.
Experiment in all cases: inhibition of tumour cell growth, NCI panel, 48 h

For the molecule `CCOC(=O)CNC(=O)N(CC)C12CC3CC(CC(C3)C1)C2`, the GI50 is 147 µM (inactive) in the assay on CAKI-1; 34.7 µM (inactive) in the assay with DLD-1; 107 µM (inactive) in the assay with DMS-114; 132 µM (inactive) with DMS-273; 157 µM (inactive) in the assay on EKVX; 158 µM (inactive) in the assay on HCC 2998. For the same molecule, the GI50 in the assay with HCT-116 was 121 µM (inactive); with HCT-15, 115 µM; with K562, 122 µM (inactive); with MCF7, 148 µM (inactive); in the assay with NCI/ADR-RES it was 151 µM (inactive); in the assay on OVCAR-3 it was 114 µM (inactive). The GI50 with RPMI-8226 is 115 µM (inactive); with SF-268 it was 143 µM (inactive); in the assay on SN12C it was 147 µM (inactive); with UACC-257 it was 122 µM (inactive); with XF498, 125 µM (inactive).

Take `CSc1sc(=S)sc1SC`: the GI50 was 1 µM (active) in the assay with CAKI-1; > 100 µM (inactive) in the assay with DLD-1; > 100 µM (inactive) in the assay on DMS-114; 77.8 µM (inactive) in the assay on DMS-273; > 100 µM (inactive) with EKVX; > 100 µM (inactive) in the assay with HCC 2998. Moreover, the GI50 with HCT-116 is > 100 µM (inactive); with HCT-15 it was greater than 100 µM; in the assay with K562, > 100 µM (inactive); in the assay on MCF7 it was > 100 µM (inactive); with NCI/ADR-RES it was 25.7 µM (inactive); in the assay with OVCAR-3, > 100 µM (inactive). The GI50 in the assay on RPMI-8226, in the assay on SF-268, in the assay on SN12C, with UACC-257 and with XF498 was > 100 µM (inactive) throughout.

As to `C=CC(OCC)(OCC)OCC`, the GI50 was > 100 µM (inactive) in the assay on CAKI-1; 35.2 µM (inactive) in the assay on DLD-1; 15.6 µM (inactive) with DMS-114; 18.2 µM (inactive) in the assay with DMS-273; > 100 µM (inactive) with EKVX; > 100 µM (inactive) in the assay with HCC 2998. Moreover, the GI50 was 20.6 µM (inactive) with HCT-116; 53.1 µM with HCT-15; > 100 µM (inactive) with K562; > 100 µM (inactive) in the assay on OVCAR-3; 61.1 µM (inactive) in the assay with RPMI-8226; > 100 µM (inactive) in the assay on SF-268. The GI50 in the assay with SN12C, in the assay with UACC-257 and in the assay on XF498 was > 100 µM (inactive) in each case.

Regarding `C=C1C(=O)OC2CC(C)C3C4OC4C(O)C3(C)C(O)C12` (stereo not given), the GI50 was 22.8 µM (inactive) in the assay with CAKI-1; 27.3 µM (inactive) with DLD-1; 12.5 µM (inactive) in the assay with DMS-114; 18.4 µM (inactive) in the assay with DMS-273; 20 µM (inactive) in the assay with EKVX; 30.8 µM (inactive) with HCC 2998. Further, the GI50 was 15.6 µM (inactive) in the assay with HCT-116; 22.8 µM with HCT-15; 20.6 µM (inactive) in the assay on K562; 20.7 µM (inactive) in the assay with MCF7; 20.7 µM (inactive) in the assay with NCI/ADR-RES; 25.9 µM (inactive) with OVCAR-3. Besides, the GI50 with RPMI-8226 was 13.7 µM (inactive); in the assay with SF-268, 23.8 µM (inactive); with SN12C it was 23 µM (inactive); in the assay on UACC-257, 37.8 µM (inactive); in the assay with XF498, 22.2 µM (inactive).

For the molecule `CCC1OC(=O)C(C)C(OC2CC(C)(O)C(O)C(C)O2)C(C)C(O)C(C)(O)CC(C)C(=O)C(C)C(O)C1C` (stereo not given), the GI50 with CAKI-1, in the assay on DLD-1, with DMS-114, in the assay on DMS-273, in the assay on EKVX and with HCC 2998 was > 300 µM (inactive) throughout. Moreover, the GI50 in the assay on HCT-116 is > 300 µM (inactive); in the assay on HCT-15, greater than 300 µM; with K562, > 300 µM (inactive); in the assay on MCF7 it was > 300 µM (inactive); in the assay with NCI/ADR-RES it was > 300 µM (inactive); in the assay on OVCAR-3 it was > 300 µM (inactive). For the same molecule, the GI50 in the assay on RPMI-8226, with SF-268, in the assay on SN12C, in the assay with UACC-257 and in the assay with XF498 was > 300 µM (inactive) each time.

Take `CCC1C[N+]23CCc4c([nH]c5ccccc45)C2CC1CC3` (stereo not given): the GI50 with CAKI-1 is 49.1 µM (inactive); with DLD-1, 76 µM (inactive); in the assay on DMS-114 it was 53.5 µM (inactive); in the assay with DMS-273 it was 55.5 µM (inactive); with EKVX, > 100 µM (inactive); in the assay on HCC 2998, > 100 µM (inactive). Moreover, the GI50 with HCT-116 is > 100 µM (inactive); with HCT-15, 68.2 µM; in the assay with K562, 70.8 µM (inactive); in the assay with OVCAR-3 it was 55.5 µM (inactive); with RPMI-8226, 38.8 µM (inactive); with SF-268, > 100 µM (inactive). For the same molecule, the GI50 is 76.4 µM (inactive) with SN12C, 50.1 µM (inactive) with UACC-257 and 42.9 µM (inactive) in the assay with XF498.

For the molecule `COC(=O)C1=CC[C@@H]2C(C(=O)O)=CO[C@@H](OC3OC(CO)C(O)C(O)C3O)[C@H]12` (stereo not given in full), the GI50 with CAKI-1 is > 300 µM (inactive); with DLD-1 it was > 189 µM (inactive); in the assay with DMS-114 it was > 300 µM (inactive); with DMS-273, > 300 µM (inactive); with EKVX, > 300 µM (inactive); with HCC 2998 it was > 110 µM (inactive). The GI50 is > 300 µM (inactive) in the assay with HCT-116; greater than 300 µM in the assay on HCT-15; > 300 µM (inactive) in the assay on K562; > 114 µM (inactive) with MCF7; > 300 µM (inactive) with NCI/ADR-RES; > 300 µM (inactive) in the assay with OVCAR-3. In addition, the GI50 in the assay on RPMI-8226 was > 300 µM (inactive); in the assay with SF-268 it was > 300 µM (inactive); in the assay on SN12C, > 300 µM (inactive); in the assay with UACC-257, > 300 µM (inactive); in the assay on XF498, > 228 µM (inactive).

For the molecule `CCC/C=C/C=C\C(=O)O[C@@H]1[C@@H](C)[C@]2(O)[C@@H]3C=C(C)C(=O)[C@H]3CC(COC(C)=O)=C[C@H]2[C@@H]2C(C)(C)[C@]12OC(C)=O`, the GI50 was 26.1 µM (inactive) with CAKI-1; 16.7 µM (inactive) in the assay with DLD-1; 45.1 µM (inactive) with DMS-114; 22.6 µM (inactive) with DMS-273; 49.9 µM (inactive) with EKVX; 14.8 µM (inactive) in the assay on HCC 2998. In addition, the GI50 in the assay on HCT-116 was 20.4 µM (inactive); with HCT-15, 28.6 µM; in the assay with K562 it was 2.49 µM (inactive); in the assay with MCF7, 37.8 µM (inactive); in the assay with NCI/ADR-RES, 50.7 µM (inactive); with OVCAR-3, 46.7 µM (inactive). The GI50 is 22.9 µM (inactive) with RPMI-8226; 39.7 µM (inactive) in the assay on SF-268; 40.3 µM (inactive) with SN12C; 42.9 µM (inactive) in the assay with UACC-257; 7.29 µM (inactive) with XF498.

In the case of `Nc1ccc2cc3ccc(N)cc3nc2c1` [PROFLAVINE SULFATE], the GI50 with CAKI-1 was 2.18 µM (inactive) and 1.82 µM (inactive); in the assay with DLD-1, 0.771 µM (active); with DMS-114, 1.21 µM (inactive); with DMS-273 it was 0.839 µM (active); in the assay on EKVX, 1.24 µM (inactive); in the assay on HCC 2998, 794 nM (active) and 1.09 µM (active). Moreover, the GI50 in the assay with HCT-116 was 366 nM (active) and 405 nM (active); with MCF7 it was 0.638 µM (active); in the assay on MDA-MB-231 it was 1.62 µM (inactive); with MDA-MB-435 it was 1.48 µM (inactive); in the assay on NCI/ADR-RES, 1.58 µM (inactive); in the assay on OVCAR-3 it was 2.77 µM (inactive) and 1.51 µM (inactive). Moreover, the GI50 with RPMI-8226 is 1.58 µM (inactive) and 1.43 µM (inactive); in the assay on SF-268, 1.32 µM (inactive) and 2.19 µM (inactive); with SN12C, 843 nM (active) and 1.04 µM (active); in the assay on T47D it was 1.59 µM (inactive); with UACC-257 it was 1.87 µM (inactive) and 1.49 µM (inactive); in the assay on XF498, 1.53 µM (inactive).
